In ChEMBL document CHEMBL3046954, “Identification of important structural features of thiazolo[4,5-d]pyrimidines required for potent antifungal activity” (2011):
≈ marks a conversion by molar mass, not a printed value.

Tests used:
Format in all cases: functional
Aspergillus niger = test: Antifungal activity against Aspergillus niger MTCC 282 by broth dilution method
Aspergillus clavatus = test: Antifungal activity against Aspergillus clavatus MTCC 1323 by broth dilution method
Candida albicans = test: Antifungal activity against Candida albicans MTCC 227 by broth dilution method

Q: `CCn1c(=S)sc2c(=O)n(-c3ccc(OC)cc3)c(Nc3ccc(OC)cc3)nc21` was tested. Which MIC (Aspergillus niger) did it give?
A: 0.8 µg/mL (≈ 1.82 µM)

Q: And the MIC (Aspergillus clavatus)?
A: 16 µg/mL (≈ 36.3 µM)

Q: What about the MIC (Candida albicans) of the same compound?
A: 2 µg/mL (≈ 4.54 µM)

Q: Which MIC (Aspergillus niger) does the source give for `Cc1ccc(Nc2nc3c(sc(=S)n3-c3ccccc3)c(=O)n2-c2ccc(C)cc2)cc1` here?
A: 12.8 µg/mL (≈ 28 µM)

Q: What about the MIC (Aspergillus clavatus) of the same compound?
A: 0.8 µg/mL (≈ 1.75 µM)

Q: And the MIC (Candida albicans)?
A: 0.8 µg/mL (≈ 1.75 µM)

Q: `COc1ccc(-n2c(=S)sc3c(=O)n(-c4ccc(F)cc4)c(Nc4ccc(F)cc4)nc32)cc1` was tested. Which MIC (Aspergillus niger) did it give?
A: 0.5 µg/mL (≈ 1.01 µM)

Q: What about the MIC (Aspergillus clavatus) of the same compound?
A: 0.4 µg/mL (≈ 0.809 µM)

Q: And the MIC (Candida albicans)?
A: 0.4 µg/mL (≈ 0.809 µM)

Q: What does the source list for `OC(Cn1cncn1)(Cn1cncn1)c1ccc(F)cc1F` [FLUCONAZOLE]?
A: MIC (Aspergillus niger): 16 µg/mL (≈ 52.2 µM); MIC (Aspergillus clavatus): 16 µg/mL (≈ 52.2 µM); MIC (Candida albicans): 0.5 µg/mL (≈ 1.63 µM)

Q: What does the source list for `COc1ccc(-n2c(=S)sc3c(=O)n(-c4ccccc4OC)c(Nc4ccccc4OC)nc32)cc1`?
A: MIC (Aspergillus niger): 0.4 µg/mL (≈ 0.771 µM); MIC (Aspergillus clavatus): 25.6 µg/mL (≈ 49.4 µM); MIC (Candida albicans): 12.8 µg/mL (≈ 24.7 µM)

Q: Which results are given for `COc1ccc(Nc2nc3c(sc(=S)n3-c3ccccc3)c(=O)n2-c2ccc(OC)cc2)cc1`?
A: MIC (Aspergillus niger): 0.8 µg/mL (≈ 1.64 µM); MIC (Aspergillus clavatus): 0.2 µg/mL (≈ 0.409 µM); MIC (Candida albicans): 0.5 µg/mL (≈ 1.02 µM)

Q: What does the source list for `COc1ccccc1Nc1nc2c(sc(=S)n2-c2ccccc2)c(=O)n1-c1ccccc1OC`?
A: MIC (Aspergillus niger): 12.8 µg/mL (≈ 26.2 µM); MIC (Aspergillus clavatus): 12.8 µg/mL (≈ 26.2 µM); MIC (Candida albicans): 4 µg/mL (≈ 8.19 µM)

Q: What does the source list for `COc1ccc(Nc2nc3c(sc(=S)n3-c3ccccc3OC)c(=O)n2-c2ccc(OC)cc2)cc1`?
A: MIC (Aspergillus niger): 4 µg/mL (≈ 7.71 µM); MIC (Aspergillus clavatus): 0.8 µg/mL (≈ 1.54 µM); MIC (Candida albicans): 16 µg/mL (≈ 30.9 µM)

Q: Which MIC (Aspergillus niger) does the source give for `COc1ccc(Nc2nc3c(sc(=S)n3-c3ccc(Br)cc3)c(=O)n2-c2ccc(OC)cc2)cc1` here?
A: 0.4 µg/mL (≈ 0.705 µM)

Q: And the MIC (Aspergillus clavatus)?
A: 12.8 µg/mL (≈ 22.6 µM)

Q: And the MIC (Candida albicans)?
A: 4 µg/mL (≈ 7.05 µM)

Q: Which MIC (Aspergillus niger) does the source give for `COc1ccc(Nc2nc3c(sc(=S)n3-c3ccc(OC)cc3)c(=O)n2-c2ccc(OC)cc2)cc1` here?
A: 0.5 µg/mL (≈ 0.964 µM)

Q: What about the MIC (Aspergillus clavatus) of the same compound?
A: 4 µg/mL (≈ 7.71 µM)

Q: And the MIC (Candida albicans)?
A: 4 µg/mL (≈ 7.71 µM)

Q: How did the MIC (Aspergillus niger) turn out when `COc1ccccc1-n1c(=S)sc2c(=O)n(-c3c(C)cccc3C)c(Nc3c(C)cccc3C)nc21` was run?
A: 4 µg/mL (≈ 7.77 µM)

Q: And the MIC (Aspergillus clavatus)?
A: 4 µg/mL (≈ 7.77 µM)

Q: What about the MIC (Candida albicans) of the same compound?
A: 4 µg/mL (≈ 7.77 µM)

Q: What does the source list for `COc1ccc(Nc2nc3c(sc(=S)n3-c3ccc(Cl)c(Cl)c3)c(=O)n2-c2ccc(OC)cc2)cc1`?
A: MIC (Aspergillus niger): 4 µg/mL (≈ 7.18 µM); MIC (Aspergillus clavatus): 0.8 µg/mL (≈ 1.44 µM); MIC (Candida albicans): 0.8 µg/mL (≈ 1.44 µM)

Q: `COc1ccc(Nc2nc3c(sc(=S)n3-c3ccc(F)c(Cl)c3)c(=O)n2-c2ccc(OC)cc2)cc1` was tested. Which MIC (Aspergillus niger) did it give?
A: 4 µg/mL (≈ 7.39 µM)

Q: What about the MIC (Aspergillus clavatus) of the same compound?
A: 0.2 µg/mL (≈ 0.37 µM)

Q: And the MIC (Candida albicans)?
A: 0.4 µg/mL (≈ 0.739 µM)

Q: With `Cc1cccc(C)c1Nc1nc2c(sc(=S)n2-c2ccccc2)c(=O)n1-c1c(C)cccc1C` as the compound, how does the MIC (Aspergillus niger) read?
A: 25.6 µg/mL (≈ 52.8 µM)

Q: And the MIC (Aspergillus clavatus)?
A: 4 µg/mL (≈ 8.25 µM)

Q: What about the MIC (Candida albicans) of the same compound?
A: 4 µg/mL (≈ 8.25 µM)

Q: How did the MIC (Aspergillus niger) turn out when NYSTATIN was run?
A: 7 µg/mL

Q: And the MIC (Aspergillus clavatus)?
A: 7 µg/mL

Q: And the MIC (Candida albicans)?
A: 8 µg/mL

Q: For `COc1ccc(-n2c(=S)sc3c(=O)n(-c4ccc(Br)cc4)c(Nc4ccc(Br)cc4)nc32)cc1`, which MIC (Aspergillus niger) is on record?
A: 4 µg/mL (≈ 6.49 µM)

Q: And the MIC (Aspergillus clavatus)?
A: 0.2 µg/mL (≈ 0.324 µM)

Q: What about the MIC (Candida albicans) of the same compound?
A: 0.8 µg/mL (≈ 1.3 µM)

Q: What does the source list for `O=c1c2sc(=S)n(-c3ccc(F)c(Cl)c3)c2nc(Nc2ccc(Br)cc2)n1-c1ccc(Br)cc1`?
A: MIC (Aspergillus niger): 4 µg/mL (≈ 6.26 µM); MIC (Aspergillus clavatus): 4 µg/mL (≈ 6.26 µM); MIC (Candida albicans): 4 µg/mL (≈ 6.26 µM)

Q: For `O=c1c2sc(=S)n(-c3ccccc3)c2nc(Nc2ccccc2)n1-c1ccccc1`, which MIC (Aspergillus niger) is on record?
A: 25.6 µg/mL (≈ 59.7 µM)

Q: And the MIC (Aspergillus clavatus)?
A: 25.6 µg/mL (≈ 59.7 µM)

Q: And the MIC (Candida albicans)?
A: 4 µg/mL (≈ 9.33 µM)

Q: What does the source list for `O=c1c2sc(=S)n(-c3ccc(Cl)c(Cl)c3)c2nc(Nc2ccc(Br)cc2)n1-c1ccc(Br)cc1`?
A: MIC (Aspergillus niger): 4 µg/mL (≈ 6.1 µM); MIC (Aspergillus clavatus): 16 µg/mL (≈ 24.4 µM); MIC (Candida albicans): 0.8 µg/mL (≈ 1.22 µM)
